Assay results published in publication PMC5906549, “Cathelicidin-Derived Antimicrobial Peptides Inhibit Zika Virus Through Direct Inactivation and Interferon Pathway” (Frontiers in Immunology, 2018).
Peptide text beside a SMILES is read from it.

Tests used:
[1] = Cell viability MTS assay in Vero cells; settings: African green monkey
Experimental: Cell viability was examined by the CellTiter 96 ®Aqueous One Solution Cell Proliferation Assay (Promega, Madison, WI, USA). Vero cells and astrocytes were seeded into 96-well tissue culture plates (Fisher Scientific) and treated with fresh growth medium containing different concentrations of each peptide for 2 or 4 days at 37°C. At the experimental end point, MTS [3-(4,5-dimethylthiazol-2-yl)-5-(3-carboxymethoxyphenyl)-2-(4-sulfophenyl)-2H-tetrazolium] was added to the cultures and incubated for 1 h. The absorbance at 490 nm was recorded through BioTek Gen5 data analysis software (Winooski), VT, optical density (OD) values were used as a representation of cell viability.
(A) Vero cells were treated with doses of peptides ranging from 1 to 50 µM. After 24 h, the cultures were washed and treated with same doses of peptides in fresh medium for another 24 h. Cell viability was determined by a colorimetric MTS assay. Results shown are the averages ±SD of experiments performed in triplicate. Data were analyzed by non-linear regression. The EC50 was assessed for each of the antimicrobial peptides. (B) Vero cells were treated with doses of peptides ranging from 0.4 to 10 µM for 2 h then infected with ZIKV at the MOI of 0.5. After 24 h, the cultures were washed and treated with same doses of peptides in fresh medium for another 24 h. ZIKA RNA was detected in total cellular RNA through real-time RT-PCR. Data were normalized to GAPDH and presented as fold change (in log scale) compared with ZIKV group. ** p < 0.01 and *** p < 0.001, as compared with the ZIKV group without the peptide treatment (ANOVA, N = 3).
A, B) Vero cells were treated with 10 µM AMPs for 2 days or 4 days as outlined in the figure. For 4-day treatment, Vero cells were repeatedly treated with 10 µM AMPs at 2-day post-treatment. At the experimental end point, cell viability was determined by a colorimetric MTS assay CellTiter 96® AQueous One Solution Assay (Promega, Madison, WI) based on the manufacture’s instruction. Results were normalized as percentage of cell viability in control astrocytes. CTL, control. * denotes p < 0.05, ** denotes p < 0.01, *** denotes p < 0.001 as compared to the control group without peptide treatment (ANOVA, N = 3).

ZIKV strain MR766 [2] = experiment: ZIKV RNA in infected Vero cells, peptide pre-treatment (real-time RT-PCR); assay type: cell-based, Zika virus; settings: 2 h before ZIKV MOI 0.5, re-treated at 24 h, 48-h post-infection, RT-PCR normalized to GAPDH, N = 3
Experimental: Human fetal astrocytes were derived from a single-cell isolation process of fetal brain tissues as previously described ([25], [26]). Briefly, dissociated brain tissue was incubated with 0.25% trypsin for 30 min, followed by neutralization with 10% fetal bovine serum (FBS), and further dissociated by trituration. The single-cell suspension was cultured as adherent cells in DMEM/F12 (Thermo Fisher Scientific, Waltham, MA, USA), supplemented with 10% FBS, penicillin (50 units/mL), and streptomycin (50 µg/mL) (Thermo Fisher Scientific). […] Vero cells (ATCC, CCL-81), an African green monkey kidney cell line, were maintained in Dulbecco’s Modified Eagle Medium (DMEM) with 5% FBS. Experiments with ZIKV were performed exclusively inside a BioSafety Level 2 (laboratory). All procedures utilized in this study were approved by the Institutional Biosafety Committee (IBC 16-05-013BL2) and followed biosafety level II practices as shown in National Institutes of health (NIH) Guideline Appendix G-II-B. ZIKV strain MR766 (Uganda, 1947) was obtained from ZeptoMetrix Corp., Buffalo, NY, USA, and propagated in Vero cells. ZIKV infection of the Vero cells and fetal astrocytes was previously characterized ([27]) and all infections in the current studies were at the MOI of 0.5.
Total mRNA was isolated with TRIzol Reagent (Thermo Fisher Scientific) and RNeasy Mini Kit (QIAGEN Inc., Valencia, CA, USA) following the manufacturer’s recommendations. Two real-time RT-PCR methods were used for the current studies. First, SYBR Green-based RT-PCR assay was used to determine intracellular ZIKV RNA in Vero cells. For this assay, reverse transcription was performed using Verso cDNA synthesis Kit (Thermo Fisher Scientific) and 1 µg of total RNA in a 15-µL final volume. The RT-PCR analyses were performed using 7.5-µL SYBR Green PCR Master Mix (Thermo Fisher Scientific) with 0.5-µL cDNA, 1.5-µL H2O, 5.5-µL oligonucleotide primer pairs at 10 µM. […] GG-3. PCR program: 1, 50°C for 2 min; 2, 95°C for 2 min; 3, 95°C for 15 s; 4, specific annealing temperature for 15 s; 5, 72°C for 1 min. Steps 2–4 were repeated 40 times. All samples were amplified in triplicate for analysis. Relative ZIKV RNA levels were determined and standardized with a GAPDH internal control using comparative ΔΔCT method ([35]). Second, TaqMan-based RT-PCR assay was used to determine intracellular ZIKV RNA and other gene expressions in Figures 3–6 and extracellular ZIKV RNA in Figure 3. The TaqMan assay was performed in a StepOne^TM Real-Time PCR system (Thermo Fisher Scientific). Primers used for TaqMan real-time RT-PCR were all from the Thermo Fisher Scientific, which included ZIKV (forward sequence: 5-[…]-3, reverse sequence: 5- […]-3, and probe sequence: 5′-[…]-3), IFN-α2 (Hs00265051_s1), IFN-β1 (Hs01077958_s1), eukaryotic 18-s rRNA (Hs99999901_s1), β-actin (Hs99999903_m1), and GAPDH (Catalog number: 4310884E). Relative ZIKV mRNA levels were determined and standardized with a GAPDH or 18-s rRNA endogenous control using comparative ΔΔCT method ([35]). […] For ZIKV in supernatants, RNA was extracted from the supernatants through TRIzol™ LS Reagent (Thermo Fisher Scientific, 10296028) following the manufacturer’s manual. […] Quantitative genomic RNA from ZIKV (NR-1838DQ, ATCC) was used as a standard to calculate viral copies.

ZIKV strain MR766 [3] = experiment: ZIKV RNA in astrocytes with recombinant IFN-α or with inhibition of type-I IFN signaling; assay type: cell-based, Zika virus; settings: astrocytes pretreated 2 h with anti-IFN-α neutralizing antibodies (200 neutralizing units/mL) or 1-µM fludarabine, then AMPs 2 h, ZIKV MOI 0.5; RNA at 24 h
Experimental: Total mRNA was isolated with TRIzol Reagent (Thermo Fisher Scientific) and RNeasy Mini Kit (QIAGEN Inc., Valencia, CA, USA) following the manufacturer’s recommendations. Two real-time RT-PCR methods were used for the current studies. First, SYBR Green-based RT-PCR assay was used to determine intracellular ZIKV RNA in Vero cells. For this assay, reverse transcription was performed using Verso cDNA synthesis Kit (Thermo Fisher Scientific) and 1 µg of total RNA in a 15-µL final volume. The RT-PCR analyses were performed using 7.5-µL SYBR Green PCR Master Mix (Thermo Fisher Scientific) with 0.5-µL cDNA, 1.5-µL H2O, 5.5-µL oligonucleotide primer pairs at 10 µM. […] GG-3. PCR program: 1, 50°C for 2 min; 2, 95°C for 2 min; 3, 95°C for 15 s; 4, specific annealing temperature for 15 s; 5, 72°C for 1 min. Steps 2–4 were repeated 40 times. All samples were amplified in triplicate for analysis. Relative ZIKV RNA levels were determined and standardized with a GAPDH internal control using comparative ΔΔCT method ([35]). […] Relative ZIKV mRNA levels were determined and standardized with a GAPDH or 18-s rRNA endogenous control using comparative ΔΔCT method ([35]). […] Quantitative genomic RNA from ZIKV (NR-1838DQ, ATCC) was used as a standard to calculate viral copies.

SMILES	EC50 at 48 h [1] [µM]	ZIKV RNA compared with untreated controls (ZIKV strain MR766 [2]; peptide 2 µM)	ZIKV RNA compared with untreated controls (ZIKV strain MR766 [2]; peptide 0.4 µM)	Effect on GF-17- and BMAP-18-mediated ZIKV inhibition (ZIKV strain MR766 [3])
CC[C@H](C)[C@H](N)C(=O)N[C@@H](CCCCN)C(=O)N[C@@H](Cc1c[nH]c2ccccc12)C(=O)N[C@@H](CCCCN)C(=O)N[C@@H](CCCCN)C(=O)N[C@@H](CC(C)C)C(=O)N[C@@H](CC(C)C)C(=O)N[C@@H](CCCNC(=N)N)C(=O)N[C@@H](C)C(=O)N[C@@H](C)C(=O)N[C@@H](CCCCN)C(=O)N[C@@H](CCCNC(=N)N)C(=O)N[C@H](C(=O)N[C@@H](CC(C)C)C(=O)O)[C@@H](C)CC [DASamP2] (H-IKWKKLLRAAKRIL-OH)	> 50	significantly decreased ZIKV RNA		
CC[C@@H](C)[C@@H](NC(=O)CN)C(=O)N[C@H](CCCCN)C(=O)N[C@H](CCC(=O)O)C(=O)N[C@H](Cc1ccccc1)C(=O)N[C@H](CCCCN)C(=O)N[C@H](CCCNC(=N)N)C(=O)N[C@@H](C(=O)N[C@@H](C(=O)N[C@H](CCC(N)=O)C(=O)N[C@H](CCCNC(=N)N)C(=O)N[C@@H](C(=O)N[C@H](CCCCN)C(=O)N[C@H](CC(=O)O)C(=O)N[C@H](Cc1ccccc1)C(=O)N[C@H](CC(C)C)C(=O)N[C@H](CCCNC(=N)N)C(=O)N[C@H](CC(N)=O)C(=O)N[C@H](CC(C)C)C(=O)N[C@@H](C(=O)O)C(C)C)[C@H](C)CC)C(C)C)[C@H](C)CC [GI-20D-form]	4	significantly decreased ZIKV RNA	significantly decreased ZIKV RNA	
CC[C@H](C)[C@H](NC(=O)CN)C(=O)N[C@@H](CCCCN)C(=O)N[C@@H](CCC(=O)O)C(=O)N[C@@H](Cc1ccccc1)C(=O)N[C@@H](CCCCN)C(=O)N[C@@H](CCCNC(=N)N)C(=O)N[C@H](C(=O)N[C@H](C(=O)N[C@@H](CCC(N)=O)C(=O)N[C@@H](CCCNC(=N)N)C(=O)N[C@H](C(=O)N[C@@H](CCCCN)C(=O)N[C@@H](CC(=O)O)C(=O)N[C@@H](Cc1ccccc1)C(=O)N[C@@H](CC(C)C)C(=O)N[C@@H](CCCNC(=N)N)C(=O)N[C@@H](CC(N)=O)C(=O)N[C@@H](CC(C)C)C(=O)N[C@H](C(=O)O)C(C)C)[C@@H](C)CC)C(C)C)[C@@H](C)CC [GI-20]	> 50	significantly decreased ZIKV RNA	significantly decreased ZIKV RNA	
CC[C@H](C)[C@H](NC(=O)[C@H](CCCCN)NC(=O)[C@H](CCC(=O)O)NC(=O)[C@H](CCCCN)NC(=O)[C@H](CO)NC(=O)[C@H](CCCCN)NC(=O)[C@H](CCCNC(=N)N)NC(=O)[C@H](Cc1ccccc1)NC(=O)[C@H](Cc1ccccc1)NC(=O)[C@H](CC(=O)O)NC(=O)CNC(=O)[C@H](CC(C)C)NC(=O)[C@@H](N)CC(C)C)C(=O)NCC(=O)N[C@@H](CCCCN)C(=O)N[C@@H](CCC(=O)O)C(=O)N[C@@H](Cc1ccccc1)C(=O)N[C@@H](CCCCN)C(=O)N[C@@H](CCCNC(=N)N)C(=O)N[C@H](C(=O)N[C@H](C(=O)N[C@@H](CCC(N)=O)C(=O)N[C@@H](CCCNC(=N)N)C(=O)N[C@H](C(=O)N[C@@H](CCCCN)C(=O)N[C@@H](CC(=O)O)C(=O)N[C@@H](Cc1ccccc1)C(=O)N[C@@H](CC(C)C)C(=O)N[C@@H](CCCNC(=N)N)C(=O)N[C@@H](CC(N)=O)C(=O)N[C@@H](CC(C)C)C(=O)N[C@H](C(=O)N1CCC[C@H]1C(=O)N[C@@H](CCCNC(=N)N)C(=O)N[C@H](C(=O)N[C@@H](CCC(=O)O)C(=O)N[C@@H](CO)C(=O)O)[C@@H](C)O)C(C)C)[C@@H](C)CC)C(C)C)[C@@H](C)CC [LL-37, reference compound]		significantly decreased ZIKV RNA	significantly decreased ZIKV RNA	
Nc1nc(F)nc2c1ncn2[C@@H]1O[C@H](CO)[C@@H](O)[C@@H]1O [fludarabine, Fludarabine]				dampened but did not completely block
